One assay concerns P388. Kind of assay: In vivo cytotoxicity against mouse P388 cells at 50 mg/kg/day relative to control. Type of assay: functional.
For another assay, the system named is KB. Kind of assay: Cytotoxicity against human KB cells. Particulars: read-out: ED50 (the source's name). Type of assay: functional.
The species entered for assay [1] is Homo sapiens. Kind of assay: Inhibition of human DNA topoisomerase 2 at 200 uM.
The species named for assay [2] is Homo sapiens. Kind of assay: Inhibition of human DNA topoisomerase 2 at 400 uM.

≈ marks a conversion by molar mass, not a printed value. Calls of active or inactive are those of the source. The calls are words filed in the database; no cut-off is given here. Some results are limits rather than exact numbers.

What is called T/C is the ratio of treated to control. Molecule `COc1cc2c(O)c3c(c(-c4ccc5c(c4)OCO5)c2cc1OC)C(=O)OC3` [DIPHYLLIN] gave a T/C in the assay on P388 of 150%. The EC50 with KB was < 1 µg/mL.

In general, inhibition refers to the relative decrease from the control value, in per cent. Turning to `COc1cc(-c2c3c(c(O)c4cc5c(cc24)OCO5)COC3=O)cc(OC)c1O`, the inhibition entry in the assay listed under Homo sapiens [1] was “inactive”. Besides, the EC50 in the assay with KB was found to be 2.2 µg/mL (≈ 5.55 µM).

For the molecule `COc1cc([C@@H]2c3cc4c(cc3[C@@H](O[C@@H]3O[C@@H]5CO[C@@H](C)O[C@H]5[C@H](O)[C@H]3O)[C@H]3COC(=O)[C@H]23)OCO4)cc(OC)c1O` [ETOPOSIDE], the inhibition in the assay listed under Homo sapiens [1] was 80%; in the assay listed under Homo sapiens [2] it was 85%. Besides, the EC50 in the assay with KB is 0.1 µg/mL (≈ 0.17 µM).

`COc1cc2c(OC)c3c(c(-c4ccc5c(c4)OCO5)c2cc1OC)C(=O)OC3` [JUSTICIDIN A] showed a T/C with P388 of 150%. Also, the EC50 with KB is < 1 µg/mL.

For the molecule `CCO[C@@H]1c2cc3c(cc2[C@@H](c2cc(OC)c(O)c(OC)c2)[C@H]2C(=O)OC[C@@H]21)OCO3`, in the assay filed under Homo sapiens [2], the inhibition turned out to be 25%. Besides, the EC50 in the assay on KB was 1.1 µg/mL (≈ 2.57 µM).

Consider `COc1cc(-c2c3c(c(O)c4cc5c(cc24)OCO5)COC3=O)cc(OC)c1OC` [DEHYDROPODOPHYLLOTOXIN], for which the inhibition entry in the assay listed under Homo sapiens [1] was “inactive”. Further, the EC50 with KB came to 4 µg/mL (≈ 9.75 µM).

For the molecule `CCOc1c2c(c(-c3cc(OC)c(O)c(OC)c3)c3cc4c(cc13)OCO4)C(=O)OC2`, in the assay listed under Homo sapiens [1], the inhibition entry is “inactive”. In addition, the EC50 with KB was 4 µg/mL (≈ 9.42 µM).

In the case of `CCOc1c2c(c(-c3cc(OC)c(OC)c(OC)c3)c3cc4c(cc13)OCO4)C(=O)OC2` [DEHYDROPODOPHYLLOTOXIN ETHYL ETHER], the inhibition entry in the assay listed under Homo sapiens [1] was “inactive”. In the assay with KB, the EC50 is 4 µg/mL (≈ 9.12 µM).

`COc1cc([C@@H]2c3cc4c(cc3[C@@H](O)[C@H]3COC(=O)[C@H]23)OCO4)cc(OC)c1O` [4'-DEMETHYLEPIPODOPHYLLOTOXIN]: the inhibition in the assay filed under Homo sapiens [2] amounted to 50%. Further, the EC50 in the assay with KB amounted to 0.1 µg/mL (≈ 0.25 µM).

Take `CCCOc1c2c(c(-c3cc(OC)c(OC)c(OC)c3)c3cc4c(cc13)OCO4)C(=O)OC2` [DEHYDROPODOPHYLLOTOXIN PROPYL ETHER]: the inhibition result in the assay listed under Homo sapiens [1] was “inactive”. The EC50 in the assay on KB is 4 µg/mL (≈ 8.84 µM).
